Data published in US11731973B2, “Substituted pyrazolo[3,4-d]pyrimidines as mTOR inhibitors” (GALDERMA RESEARCH & DEVELOPMENT, priority 2018, dated 2023).
pIC50, pKi: −log10 of the molar value.

Key:
[1] = molecular target: mTORC2 (Homo sapiens (Human), UniProt P42345); experiment: mTORC2 inhibitory activity: phosphorylation of AKT in A431 cells (HTRF); format: cell-based; conditions: 3 hours at 37° C.
Procedure: (§1) The serial dilutions of the test molecules are added (0.1% DMSO final). After incubation for 3 hours at 37° C., the phosphorylation of the biomarkers S6RP (mTORC1) and AKT (mTORC2) is measured using the HTRF technology (Cisbio) according to the supplier's recommendations. […] The IC50 values are calculated using a 4-parameter logistic model with the aid of the XLFit software (IDBS).

[2] = molecular target: mTOR (Homo sapiens (Human), UniProt P42345); experiment: Inhibitory activity on mTOR kinase (LANTHASCREEN TR-FRET); format: biochemical; conditions: 1 hour reaction at room temperature
Procedure: After 1 hour of reaction at room temperature, 10 μL of a solution containing 10 mM final of EDTA and 2 nM final of terbium-labeled antibodies are added. After at least 30 minutes of incubation at room temperature, the TR-FRET signal is measured with a suitable microplate reader according to the supplier's recommendations. […] The IC50 values are calculated using a 4-parameter logistic model with the aid of the XLFit software (IDBS).

[3] = molecular target: mTORC1 (Homo sapiens (Human), UniProt P42345); experiment: mTORC1 inhibitory activity: phosphorylation of S6RP in A431 cells (HTRF); format: cell-based; conditions: 3 hours at 37° C.
Procedure: as §1

[4] = test system: patch model of atopic dermatitis; experiment: Patch model of atopic dermatitis (DERP epicutaneous sensitization) in mice; format: in vivo, Balb/c mice; conditions: 0.07% in acetone vehicle, topical
Procedure: The antagonist (mTOR inhibitor) according to example 31 tested was formulated at 0.07% in an acetone vehicle, applied to the skin of the back of the mouse (10 μl/ear on the two faces) and left for 2 hours before applying the DERP patches. Topical treatments with the antagonist (mTOR inhibitor) or a corticosteroid (betamethasone 17-valerate at 0.01% used as control) were performed only three times in the course of the third and final week of sensitization (on days 44, 47 and 50).
The transepidermal water loss TEWL is measured using a […]® on a control animal. The […]® probe measures the density gradient of water evaporation from the skin indirectly by means of two pairs of sensors (temperature and relative humidity) inside a hollow cylinder. A microprocessor analyzes the values and expresses the evaporation rate in g/h/m2.
The epidermal thickness is measured by histological morphometric analyses on sections 6 μm thick stained with HE using skin samples fixed beforehand with […].
The inflammation score is defined visually as a function of predefined scales of dryness, cutaneous eruption, baldness, excoriation and lichenification. The mean of the five scores attributed to an individual mouse on a given day gives the clinical score attributed on that specific day.
To evaluate the contribution of mTOR to the inflammatory response of atopic dermatitis, the inventors used an atopic dermatitis model described previously based on repeated epicutaneous sensitizations (Spergel et al. JCI 1998; Staumont-Sallé et al. JEM 2015), with Dermatophagoides pteronyssinus (DERP) as antigen. In this model, the skin lesions caused by the atopic dermatitis present inflammation with Th2 dominant characterized by dermal infiltration of CD4+T lymphocytes and of eosinophils accompanied by deposition of eosinophil products and an increase in the cutaneous expression of the Th2 cytokines.
Following the protocol of example 33, the inflammatory response of atopic dermatitis was provoked by epicutaneous sensitization with patches soaked with 100 μg of allergen in sterile saline solution (Dermatophagoides pteronyssinus or DERP) or with a vehicle applied to the abdominal skin 24 hours after shaving and left in place for three periods of one week (with renewal of the patch in the middle of the week), with a 2-week interval between the applications. The presence of the patches and of a transparent occlusive dressing on top prevented the mice from licking, biting and scratching; consequently, the inflammatory response in this model is not due to the itching cycle.
The antagonist according to example 31 (mTOR inhibitor) was formulated at 0.07% in an acetone-based vehicle, applied to the sensitized skin 2 hours before installation of the DERP patches. […]

[5] = days 44, 47 and 50, female Balb/c mice, DERP patches

Row | Compound | pIC50 [1] | pKi [2] | pIC50 [3] | change in epidermal thickness (epidermal acanthosis) [4, 5] | change in inflammatory scores [4, 5] | decrease of the increase in the rate of transepidermal water loss TEWL [4, 5] | effect on the parameters studied (TEWL, epidermal thickness, inflammation score) ([4]; DERP patch model in mice)
1 | CC(C)C[C@H](C)n1nc(-c2cc3nc(N)oc3cc2F)c2c(N)nc(N)nc21 [Example 2, 3-(2-amino-6-fluorobenzoxazol-5-yl)-1-((S)-1,3-dimethylbutyl)-1H-pyrazolo[3,4-d]pyrimidine-4,6-diamine] | 8.68 | 9.00 | 8.92 |  |  |  | 
2 | CC1(Cn2nc(-c3cc4nc(N)oc4cc3F)c3c(N)nc(N)nc32)CCC1 [Example 4, 3-(2-amino-6-fluorobenzoxazol-5-yl)-1-(1-methylcyclobutylmethyl)-1H-pyrazolo[3,4-d]pyrimidine-4,6-diamine] | 8.47 |  | 8.89 |  |  |  | 
3 | CCC(C)(C)Cn1nc(-c2ccc3oc(N)nc3c2)c2c(N)nc(N)nc21 [Example 8, 3-(2-aminobenzoxazol-5-yl)-1-(2,2-dimethylbutyl)-1H-pyrazolo[3,4-d]pyrimidine-4,6-diamine] | 8.52 | 9.22 | 8.92 |  |  |  | 
4 | CCNc1nc2cc(-c3nn(CC(C)(C)C)c4nc(N)nc(N)c34)ccc2o1 [Example 11, 1-(2,2-dimethylpropyl)-3-(2-ethylaminobenzoxazol-5-yl)-1H-pyrazolo[3,4-d]pyrimidine-4,6-diamine] | 8.23 | 9.10 | 8.30 |  |  |  | 
5 | C=CC(C)(C)Cn1nc(-c2ccc3oc(N)nc3c2)c2c(N)nc(N)nc21 [Example 12, 3-(2-aminobenzoxazol-5-yl)-1-(2,2-dimethylbut-3-enyl)-1H-pyrazolo[3,4-d]pyrimidine-4,6-diamine] | 8.43 | 8.92 | 8.96 |  |  |  | 
6 | CC(C)(Cn1nc(-c2ccc3oc(N)nc3c2)c2c(N)nc(N)nc21)[C@@H]1CCCO1 [Example 13, (+)-3-(2-aminobenzoxazol-5-yl)-1-((S)-2-methyl-2-tetrahydrofuran-2-ylpropyl)-1H-pyrazolo[3,4-d]pyrimidine-4,6-diamine] | 8.39 | 8.92 | 8.85 |  |  |  | 
7 | C#CC(C)(C)Cn1nc(-c2ccc3oc(N)nc3c2)c2c(N)nc(N)nc21 [Example 14, 3-(2-aminobenzoxazol-5-yl)-1-(2,2-dimethylbut-3-ynyl)-1H-pyrazolo[3,4-d]pyrimidine-4,6-diamine] | 8.42 | 8.92 | 8.92 |  |  |  | 
8 | CC(C)(CO)Cn1nc(-c2ccc3oc(N)nc3c2)c2c(N)nc(N)nc21 [Example 15, 3-[4,6-diamino-3-(2-aminobenzoxazol-5-yl)pyrazolo[3,4-d]pyrimidin-1-yl]-2,2-dimethylpropan-1-ol] | 8.14 | 8.82 | 8.77 |  |  |  | 
9 | CSC(C)(C)Cn1nc(-c2ccc3oc(N)nc3c2)c2c(N)nc(N)nc21 [Example 16, 3-(2-aminobenzoxazol-5-yl)-1-(2-methyl-2-methylsulfanylpropyl)-1H-pyrazolo[3,4-d]pyrimidine-4,6-diamine] | 7.99 | 8.77 | 8.66 |  |  |  | 
10 | CC(C)(C)Cn1nc(-c2ccc3oc(N)nc3c2Cl)c2c(N)nc(N)nc21 [Example 17, 3-(2-amino-4-chlorobenzoxazol-5-yl)-1-(2,2-dimethylpropyl)-1H-pyrazolo[3,4-d]pyrimidine-4,6-diamine] | 8.40 | 8.74 | 8.92 |  |  |  | 
11 | COc1cc2oc(N)nc2cc1-c1nn(CC(C)(C)C)c2nc(N)nc(N)c12 [Example 18, 3-(2-amino-6-methoxybenzoxazol-5-yl)-1-(2,2-dimethylpropyl)-1H-pyrazolo[3,4-d]pyrimidine-4,6-diamine] | 8.37 | 8.68 | 8.68 |  |  |  | 
12 | CC(C)(C)Cn1nc(-c2cc3cc(O)cnc3[nH]2)c2c(N)nc(N)nc21 [Example 19, 2-[4,6-diamino-1-(2,2-dimethylpropyl)-1H-pyrazolo[3,4-d]pyrimidin-3-yl]-1H-pyrrolo[2,3-b]pyridin-5-ol] | 7.18 | 8.64 | 7.56 |  |  |  | 
13 | CCC(C)(C)Cn1nc(-c2cc3nc(N)oc3cc2OC)c2c(N)nc(N)nc21 [Example 20, 3-(2-amino-6-methoxybenzoxazol-5-yl)-1-(2,2-dimethylbutyl)-1H-pyrazolo[3,4-d]pyrimidine-4,6-diamine] | 8.15 | 8.54 | 8.68 |  |  |  | 
14 | CC(C)n1nc(-c2ccc3oc(N)nc3c2)c2c(N)nc(N)nc21 [Example 21, 3-(2-aminobenzoxazol-5-yl)-1-isopropyl-1H-pyrazolo[3,4-d]pyrimidine-4,6-diamine] | 7.97 | 8.42 | 8.42 |  |  |  | 
15 | CCC(CC)(Cn1nc(-c2ccc3oc(N)nc3c2)c2c(N)nc(N)nc21)S(C)(=O)=O [Example 22, 3-(2-aminobenzoxazol-5-yl)-1-(2-ethyl-2-methanesulfonylbutyl)-1H-pyrazolo[3,4-d]pyrimidine-4,6-diamine] | 7.58 | 8.41 | 7.99 |  |  |  | 
16 | CC(C)Cn1nc(-c2ccc3oc(N)nc3c2)c2c(Cl)nc(N)nc21 [Example 23, 3-(2-aminobenzoxazol-5-yl)-4-chloro-1-isobutyl-1H-pyrazolo[3,4-d]pyrimidin-6-ylamine] | 8.23 | 8.24 | 8.55 |  |  |  | 
17 | CC(C)n1nc(-c2ccc3oc(N)nc3c2)c2cnc(N)nc21 [Example 24, 3-(2-aminobenzoxazol-5-yl)-1-isopropyl-1H-pyrazolo[3,4-d]pyrimidin-6-ylamine] | 7.81 | 8.21 | 8.17 |  |  |  | 
18 | CC(C)[C@H](C)n1nc(-c2cc3nc(N)oc3cc2Cl)c2c(N)nc(N)nc21 [Example 25, 3-(2-amino-6-chlorobenzoxazol-5-yl)-1-((S)-1,2-dimethylpropyl)-1H-pyrazolo[3,4-d]pyrimidine-4,6-diamine] | 7.88 | 8.09 | 8.35 |  |  |  | 
19 | CNc1nc(N)c2c(-c3ccc4oc(N)nc4c3)nn(C(C)C)c2n1 [Example 26, 3-(2-Aminobenzoxazol-5-yl)-1-isopropyl-N^6-methyl-1H-pyrazolo[3,4-d]pyrimidine-4,6-diamine] | 7.21 | 7.87 | 7.53 |  |  |  | 
20 | Cc1nc(N)nc2c1c(-c1ccc3oc(N)nc3c1)nn2CC(C)(C)C [Example 27, 5-(6-amino-4-methyl-1-neopentyl-1H-pyrazolo[3,4-d]pyrimidin-3-yl)benzo[d]oxazol-2-amine] | 7.82 | 7.84 | 8.09 |  |  |  | 
21 | CC(C)n1nc(-c2ccc3oc(NC4CC4)nc3c2)c2c(N)nc(N)nc21 [Example 28, 3-(2-cyclopropylaminobenzoxazol-5-yl)-1-isopropyl-1H-pyrazolo[3,4-d]pyrimidine-4,6-diamine] | 7.40 | 7.68 | 7.36 |  |  |  | 
22 | CCC(C)(C)Cn1nc(-c2cc(C)c3oc(N)nc3c2)c2c(N)nc(N)nc21 [Example 29, 3-(2-amino-7-methylbenzoxazol-5-yl)-1-(2,2-dimethylbutyl)-1H-pyrazolo[3,4-d]pyrimidine-4,6-diamine] | 6.13 | 6.99 | 6.63 |  |  |  | 
23 | CC(C)n1nc(-c2ccc3oc(N)nc3c2)c2c(Cl)nc(N)nc21 [Example 31, 5-(6-Amino-4-chloro-1-isopropyl-1H-pyrazolo[3,4-d]pyrimidin-3-yl)benzo[d]oxazol-2-amine] | 7.68 | 8.00 | 8.08 | −39% | −40 | −68% | reduces all the parameters studied
